The source of these data is the supplement of paper PMC10307832.

Common to all, as to experiment: relative viability (nuclei count vs DMSO), 5 days (fraction); higher = more cells survive
Compound in the assay “AZ505 + OSI-027”: C1CCC(CC1)N(CCNCCC2=C3C(=C(C=C2)O)NC(=O)CO3)C(=O)CCNCCC4=CC(=C(C=C4)Cl)Cl [AZ505] + COc1cccc2cc(-c3nc([C@H]4CC[C@H](C(=O)O)CC4)n4ncnc(N)c34)[nH]c12 [OSI-027] (partner 0.5 µM)
The gist of the method:
(§1)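 After 5 days of treatment, lung cancer cells in 1536-well plates were fixed and stained in a single step (final 0.05% Triton X-100, 1% formaldehyde, 1 ug/ml Hoechst) and their nuclei counted on 4× images. Treatment had been applied by pin tool the day after seeding as one drug alone or as a fixed anchor-drug dose with five library-drug doses (not always all listed) in √10 steps. Relative viability is the nuclei count of treated wells divided by that of vehicle wells, and values are medians of duplicate plates.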

Compound in the assay “AZ505 + Vorinostat”: C1CCC(CC1)N(CCNCCC2=C3C(=C(C=C2)O)NC(=O)CO3)C(=O)CCNCCC4=CC(=C(C=C4)Cl)Cl [AZ505] + O=C(CCCCCCC(=O)Nc1ccccc1)NO [Vorinostat] (partner 1 µM)
The gist of the method: as §1

Compound in the assay “Dactolisib + Pictilisib”: Cn1c(=O)n(-c2ccc(C(C)(C)C#N)cc2)c2c3cc(-c4cnc5ccccc5c4)ccc3ncc21 [Dactolisib] + CS(=O)(=O)N1CCN(Cc2cc3nc(-c4cccc5[nH]ncc45)nc(N4CCOCC4)c3s2)CC1 [Pictilisib] (partner 1 µM)
In outline: as §1

Compound in the assay “Dactolisib + Linsitinib”: Cn1c(=O)n(-c2ccc(C(C)(C)C#N)cc2)c2c3cc(-c4cnc5ccccc5c4)ccc3ncc21 [Dactolisib] + C[C@]1(O)C[C@@H](c2nc(-c3ccc4ccc(-c5ccccc5)nc4c3)c3c(N)nccn32)C1 [Linsitinib] (partner 1 µM)
The gist of the method:
as §1

As to UMC-11, the relative viability with AZ505 + OSI-027 (first compound 0.08 µM) is 0.413; with AZ505 + OSI-027 (first compound 0.253 µM), 0.53; with AZ505 + OSI-027 (first compound 0.8 µM), 0.452; in the assay with AZ505 + OSI-027 (first compound 2.53 µM), 0.476; in the assay with AZ505 + OSI-027 (first compound 8 µM), 0.492; in the assay with AZ505 + Vorinostat (first compound 0.08 µM) it was 0.371. For the same cell line, the relative viability with AZ505 + Vorinostat (first compound 0.253 µM) worked out at 0.433; in the assay with AZ505 + Vorinostat (first compound 0.8 µM) it was 0.367; with AZ505 + Vorinostat (first compound 2.53 µM), 0.434; with AZ505 + Vorinostat (first compound 8 µM), 0.397; in the assay with Dactolisib + Pictilisib (first compound 0.002 µM), 0.753; in the assay with Dactolisib + Pictilisib (first compound 0.006325 µM) it was 0.727. Besides, the relative viability was 0.606 with Dactolisib + Pictilisib (first compound 0.02 µM); 0.285 in the assay with Dactolisib + Pictilisib (first compound 0.06325 µM); 0.203 with Dactolisib + Pictilisib (first compound 0.2 µM); 1.02 with Dactolisib + Linsitinib (first compound 0.002 µM); 0.987 with Dactolisib + Linsitinib (first compound 0.006325 µM); 0.671 with Dactolisib + Linsitinib (first compound 0.02 µM). Further, the relative viability with Dactolisib + Linsitinib (first compound 0.06325 µM) amounted to 0.286; with Dactolisib + Linsitinib (first compound 0.2 µM), 0.262.
